Here are results for 23 compounds from patent US20070066672A1, “Benzimidazole derivatives and use thereof as peptide deformylase inhibitors” (Arpida A/S, priority 2003, published 2007).

For experiment [1], the target named is T1, Peptide Deformylase (PDF) (Staphylococcus aureus, UniProt P68826).
T1 construct: made in house
T1 sequence (P68826 1-183): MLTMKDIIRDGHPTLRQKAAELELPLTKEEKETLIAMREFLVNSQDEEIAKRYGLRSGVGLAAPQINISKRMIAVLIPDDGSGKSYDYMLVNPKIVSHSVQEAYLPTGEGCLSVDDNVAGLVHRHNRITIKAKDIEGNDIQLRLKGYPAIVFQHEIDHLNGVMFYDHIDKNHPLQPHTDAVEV
As to the kind of experiment: Bacterial peptide deformylase (PDF) assay, colorimetric cell free, enzyme from S. aureus. The class given is biochemical. To be noted: f-Met-Ala substrate, TNBS detection at 420 nm. An excerpt:
(§1) To find inhibitors of Peptide Deformylase (PDF), a colorimetric cell free assay for measuring the enzymatic activity of PDF has been adapted to the microtiter plate format (96 wells). The assay comprises three components, purified PDF, f-Met-Ala as substrate and TNBS as the detecting agent of primary amino groups. The resulting TNP_NH-Met-Ala sulfite complex can be detected at 420 nm. PDF enzymes, containing Fe^2+ as the native metal, are purified and are stabilized by the addition of tris(2-carboxyethyl)phosphine (TCEP).
(§2) The IC50 value of a compound of the invention as a bacterial PDF inhibitor was determined using the following assay.
(§3) Assay buffer 0.1 M MOPS pH was adjusted to 7.2 with NaOH, containing 0.25 M NaCl, 100 μg/mL catalase and 1 mg/mL BSA.
(§4) E. coli enzyme (2.5 mg/ml) 10 μl+290 μl Assay buffer, 1 μl per ml enzyme mix. S. aureus (15 mg/ml) 10 μl+990 μl Assay buffer, 0.3 μl per ml enzyme mix.
(§5) Substrate mix: 10 mM f-Met-Ala was made up from 200 mM f-Met-Ala in methanol with assay buffer.
(§6) TNBS solution: Freshly dilute 1 M TNBS stock solution diluted 1:10 with water.
(§7) Buffer C: 0.5 M borate buffer adjusted to pH 9.5 with NaOH.
(§8) Buffer D: 0.2 ml of freshly prepared 0.5 M Na2SO3 was mixed with 9.8 mL of 0.5M NaH2PO4.
(§9) Inhibitor solution: 2 mM Sodium 4-(hydroxymercurio)benzoate in assay buffer.
(§10) Compound mix: Compound of formula I dissolved in DMSO in a 10 mg/mL stock solution. Further dilutions were made in DMSO in the concentration range between 0.05 to 100 mM.
(§11) The assay was performed in a 96 Microtiter plate containing test compound. To each well containing test compound mix was added 75 microliter of enzyme mix from E. coli followed by the addition of 25 microliter of substrate mix. The resulting mix was incubated for 30 minutes at room temperature with shaking. TNBS solution (50 microliter/well) was added and the resulting mixture was incubated for 15 minutes under shaking. Buffer C was then added (20 microliter/well). After incubating at room temperature for 15 minutes under shaking, buffer D was added (50 microliter/well). The optical […] was then measured at 420 nm, thereby determining the IC50 value.
The assay was repeated using enzyme mix from S. aureus.

Experiment [2] deals with T2, Peptide Deformylase (PDF) (Escherichia coli, UniProt P0A6K3).
T2 construct: made in house
T2 sequence (P0A6K3 whole entry): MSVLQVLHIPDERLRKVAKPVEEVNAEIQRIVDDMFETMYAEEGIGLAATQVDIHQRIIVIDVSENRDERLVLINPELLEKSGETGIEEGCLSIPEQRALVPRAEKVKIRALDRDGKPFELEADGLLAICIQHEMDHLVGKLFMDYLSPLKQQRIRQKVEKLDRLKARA
Briefly: Bacterial peptide deformylase (PDF) assay, colorimetric cell free, enzyme from E. coli. The class given is biochemical.
Text: as §1, §2, §3, §4, §5, §6, §7, §8, §9, §10, §11

Take `CCC(NC(=O)CCC(=O)O)c1nc2cc(C(=O)NCC(=O)OC)ccc2n1Cc1ccccc1` (stereo not shown) [Example 12, N-{1-[1-Benzyl-5-(methoxycarbonylmethyl-carbamoyl)-1H-benzoimidazol-2-yl]-propyl}-succinamic acid]: the values for the IC50 in experiment [1] and in experiment [2] were 68 nM and 4.8 µM, respectively.
Turning to `COC(=O)CNC(=O)c1ccc2c(c1)nc(C(CC(C)C)NC(=O)CCC(=O)O)n2C1CC1` (stereo not shown) [Example 13, N-{1-[1-Cyclopropyl-5-(methoxycarbonylmethyl-carbamoyl)-1H-benzoimidazol-2-yl]-3-methyl-butyl}-succinamic acid], the IC50 in experiment [1] was 119 nM; in experiment [2], 4 µM.
The matching figures for `CCCCn1c(C(CC(C)C)NC(=O)CCC(=O)O)nc2cc(C(=O)NCC(=O)OC)ccc21` (stereo not shown) [Example 14, N-{1-[1-Butyl-5-(methoxycarbonylmethyl-carbamoyl)-1H-benzoimidazol-2-yl]-3-methyl-butyl}-succinamic acid]: 2600 nM and 7.3 µM.
On the same counts, the results for `COC(=O)CNC(=O)c1ccc2c(c1)nc(C(CC(C)C)NC(=O)CCC(=O)O)n2Cc1ccccc1` (stereo not shown) [Example 15, N-{1-[1-Benzyl-5-(methoxycarbonylmethyl-carbamoyl)-1H-benzoimidazol-2-yl]-3-methyl-butyl}-succinamic acid] are 4000 nM and 3.3 µM.
Turning to `COC(=O)CNC(=O)c1ccc2c(c1)nc(C(CCSC)NC(=O)CCC(=O)O)n2C1CC1` (stereo not shown) [Example 16, N-{1-[1-Cyclopropyl-5-(methoxycarbonylmethyl-carbamoyl)-1H-benzoimidazol-2-yl]-3-methylsulfanyl-propyl}-succinamic acid], the IC50 was 17600 nM in experiment [1] and 47.2 µM in experiment [2].
`COC(=O)CNC(=O)c1ccc2c(c1)nc(C(Cc1cccc3ccccc13)NC(=O)CCC(=O)O)n2CCc1cccs1` (stereo not shown) [Example 17, N-{1-[5-(Methoxycarbonylmethyl-carbamoyl)-1-(2-thiophen-2-yl-ethyl)-1H-benzoimidazol-2-yl]-2-naphthalen-1-yl-ethyl}-succinamic acid]: the IC50 in experiment [1] was found to be 99 nM; in experiment [2], 0.071 µM.
The matching figures for `CCCCn1c(C(Cc2cccc3ccccc23)NC(=O)CCC(=O)O)nc2cc(C(=O)NCC(=O)OC)ccc21` (stereo not shown) [Example 18]: 74 nM and 2.7 µM.
On the same counts, the results for `COC(=O)CNC(=O)c1ccc2c(c1)nc(C(CCCCN)NC(=O)CCS)n2CC1CCCCC1` (stereo not shown) [Example 19, ({2-[5-Amino-1-(3-mercapto-propionylamino)-pentyl]-1-cyclohexylmethyl-1H-benzoimidazole-5-carbonyl}-amino)-acetic acid methyl ester] are 27100 nM and 38.1 µM.
The matching figures for `COC(=O)CNC(=O)c1ccc2c(c1)nc(C(Cc1ccc(O)cc1)NC(=O)CCS)n2C1CC1` (stereo not shown) [Example 20, ({1-Cyclopropyl-2-[2-(4-hydroxy-phenyl)-1-(3-mercapto-propionylamino)-ethyl]-1H-benzoimidazole-5-carbonyl}-amino)-acetic acid methyl ester]: > 200000 nM and > 200 µM.
For the compound `COC(=O)CNC(=O)c1ccc2c(c1)nc(C(Cc1ccc(O)cc1)NC(=O)CCS)n2CC1CCCCC1` (stereo not shown) [Example 21, ({1-Cyclohexylmethyl-2-[2-(4-hydroxy-phenyl)-1-(3-mercapto-propionylamino)-ethyl]-1H-benzoimidazole-5-carbonyl}-amino)-acetic acid methyl ester], the half-maximal inhibitory concentration (IC50) in experiment [1] is > 200000 nM; in experiment [2], > 200 µM.
On to `COC(=O)CNC(=O)c1ccc2c(c1)nc(C(Cc1ccccc1)NC(=O)CCS)n2CCO` (stereo not shown) [Example 22, ({1-(2-Hydroxy-ethyl)-2-[1-(3-mercapto-propionylamino)-2-phenyl-ethyl]-1H-benzoimidazole-5-carbonyl}-amino)-acetic acid methyl ester], for which the IC50 in experiment [1] was > 200000 nM; in experiment [2] it was > 200 µM.
On the same counts, the results for `COC(=O)CNC(=O)c1ccc2c(c1)nc(C(CCCCN)NC(=O)CCC(=O)O)n2CC1CCCCC1` (stereo not shown) [Example 24, N-{5-Amino-1-[1-cyclohexylmethyl-5-(methoxycarbonylmethyl-carbamoyl)-1H-benzoimidazol-2-yl]-pentyl}-succinamic acid] are 1400 nM and 13.1 µM.
The matching figures for `COC(=O)CNC(=O)c1ccc2c(c1)nc(C(Cc1ccc(O)cc1)NC(=O)CCC(=O)O)n2C1CC1` (stereo not shown) [Example 25, N-[1-[1-Cyclopropyl-5-(methoxycarbonylmethyl-carbamoyl)-1H-benzoimidazol-2-yl]-2-(4-hydroxyphenyl)-ethyl]-succinamic acid]: 28300 nM and 12.8 µM.
On the same counts, the results for `COC(=O)CNC(=O)c1ccc2c(c1)nc(C(Cc1ccc(O)cc1)NC(=O)CCC(=O)O)n2CC1CCCCC1` (stereo not shown) [Example 26, N-[1-[1-Cyclohexylmethyl-5-(methoxycarbonylmethyl-carbamoyl)-1H-benzoimidazol-2-yl]-2-(4-hydroxyphenyl)-ethyl]-succinamic acid] are 25000 nM and 35.2 µM.
As for `COC(=O)CNC(=O)c1ccc2c(c1)nc(C(Cc1ccccc1)NC(=O)CCC(=O)O)n2CCO` (stereo not shown) [Example 27, N-{1-[1-(2-Hydroxy-ethyl)-5-(methoxycarbonylmethyl-carbamoyl)-1H-benzoimidazol-2-yl]-2-phenyl-ethyl}-succinamic acid], the IC50 in experiment [1] was found to be 27700 nM; in experiment [2], 41.8 µM.
The matching figures for `COC(=O)CNC(=O)c1ccc2c(c1)nc(C(CC(C)C)NC(=O)CCC(=O)O)n2CCO` (stereo not shown) [Example 28, N-{1-[1-(2-Hydroxy-ethyl)-5-(methoxycarbonylmethyl-carbamoyl)-1H-benzoimidazol-2-yl]-3-methylbutyl}-succinamic acid]: 34400 nM and > 200 µM.
The matching figures for `CCC(NC(=O)CCC(=O)NO)c1nc2cc(C(=O)NCC(=O)OC)ccc2n1C1CC1` (stereo not shown) [Example 29, ({1-Cyclopropyl-2-[1-(3-hydroxycarbamoyl-propionylamino)-propyl]-1H-benzoimidazole-5-carbonyl}-amino)-acetic acid methyl ester]: 105 nM and 0.079 µM.
On the same counts, the results for `CCC(NC(=O)CCC(=O)NO)c1nc2cc(C(=O)NCC(=O)OC)ccc2n1Cc1ccco1` (stereo not shown) [Example 31, ({1-Furan-2-ylmethyl-2-[1-(3-hydroxycarbamoyl-propionylamino)-propyl]-1H-benzoimidazole-5-carbonyl}-amino)-acetic acid methyl ester] are 151 nM and 0.098 µM.
`CCC(NC(=O)CCC(=O)NO)c1nc2cc(C(=O)NCC(=O)OC)ccc2n1Cc1ccccc1` (stereo not shown) [Example 32, ({1-Benzyl-2-[1-(3-hydroxycarbamoyl-propionylamino)-propyl]-1H-benzoimidazole-5-carbonyl}-amino)-acetic acid methyl ester]: the values for the half-inhibitory concentration (IC50) in experiment [1] and in experiment [2] were 67 nM and 0.045 µM, respectively.
On the same counts, the results for `COC(=O)CNC(=O)c1ccc2c(c1)nc(C(CCSC)NC(=O)CCC(=O)NO)n2Cc1ccccc1` (stereo not shown) [Example 38] are 3500 nM and 25.8 µM.
For the compound `COC(=O)CNC(=O)c1ccc2c(c1)nc(C(Cc1ccccc1)NC(=O)CCC(=O)NO)n2Cc1ccc(Cl)cc1` (stereo not shown) [Example 40, ({1-(4-Chloro-benzyl)-2-[1-(3-hydroxycarbamoyl-propionylamino)-2-phenyl-ethyl]-1H-benzoimidazole-5-carbonyl}-amino)-acetic acid methyl ester], the IC50 in experiment [1] was 21 nM; in experiment [2], 1.4 µM.
On the same counts, the results for `COC(=O)CNC(=O)c1ccc2c(c1)nc(C(CCc1ccccc1)NC(=O)CCC(=O)NO)n2C1CC1` (stereo not shown) [Example 41, ({1-Cyclopropyl-2-[1-(3-hydroxycarbamoyl-propionylamino)-3-phenyl-propyl]-1H-benzoimidazole-5-carbonyl}-amino)-acetic acid methyl ester] are 363 nM and 2.3 µM.
Take `COC(=O)CNC(=O)c1ccc2c(c1)nc(C(Cc1cccc3ccccc13)NC(=O)CCC(=O)NO)n2Cc1ccccc1` (stereo not shown) [Example 46, ({1-Benzyl-2-[1-(3-hydroxycarbamoyl-propionylamino)-2-naphthalen-1-yl-ethyl]-1H-benzoimidazole-5-carbonyl}-amino)-acetic acid methyl ester]: the figures for the IC50 in experiment [1] and in experiment [2] were 900 nM and 6.5 µM, respectively.

For orientation: IC50 means the concentration that inhibits the measured activity by half. Read a low IC50 as greater potency.
